Holding throughout (experiment): DTP human tumour cell line panel, 48 h
Assay [1] deals with NCI-H23.
For assay [2], the system named is HCT-116.
Assay [3] deals with HCC 2998.
In assay [4] the test system is BT-549.
Assay [5] concerns SF-295.
For assay [6], the system named is UO-31.
Assay [7] deals with M14.
Assay [8] deals with SNB-75.
Assay [9] concerns T47D.
The test system of assay [10] is OVCAR-5.
Assay [11] concerns EKVX.
Assay [12] relates to 786-0.
The test system of assay [13] is MDA-MB-435.
Assay [14] relates to K562.
Assay [15] relates to SK-MEL-28.
In assay [16] the test system is SW-620.
For assay [17], the system named is UACC-62.
Assay [18] has as its system A498.
Assay [19] deals with MOLT-4.
The test system of assay [20] is DMS-273.

Values joined by “and” are separate entries in the source; they are usually repeats but may differ in a detail not shown here. Equal values may be shown once.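 Values below derive from 48-hour exposures of cells grown in 96-well plates, with endpoints linearly interpolated between the two concentrations bracketing the appropriate inhibition level. Abbreviation: GI50, concentration required for 50% inhibition of growth.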 Active and inactive are the calls of the source. Rule as the data show it: active = GI50 up to about 1.1 µM and inactive = higher.

On to `CC1(C)COCN1COC1CCCCC1`, for which the GI50 in assay [1], in assay [2], in assay [3], in assay [4], in assay [5] and in assay [6] was > 100 µM (inactive) throughout. The GI50 in [7] is > 100 µM (inactive); in [8], 5.08 µM (inactive); in [9], > 100 µM (inactive); in assay [10], > 100 µM (inactive); in [11] it was > 100 µM (inactive); in assay [12], > 100 µM (inactive). Further, the GI50 in assay [13] is > 100 µM (inactive); in assay [14], 92.7 µM (inactive); in assay [15], > 100 µM (inactive); in assay [16], > 100 µM (inactive); in assay [17] it was > 100 µM (inactive); in assay [18] it was > 100 µM (inactive). Also, the GI50 in [19] is 24.1 µM (inactive).

Regarding `SC1CCCN(Cc2ccccc2)C1` (centres undefined), the GI50 in assay [1] is 25.6 µM (inactive); in [2], 61.1 µM (inactive); in assay [3], 16.2 µM (inactive); in assay [4], > 100 µM (inactive); in [5] it was 61.1 µM (inactive); in assay [6], 54.2 µM (inactive). The GI50 in [7] is 20 µM (inactive); in [8], > 100 µM (inactive); in assay [9] it was 27.5 µM (inactive); in assay [10] it was > 100 µM (inactive); in [11], > 100 µM (inactive); in assay [12], 35.7 µM (inactive). The GI50 was 31.6 µM (inactive) in [13]; 23.8 µM (inactive) in assay [14]; 41.9 µM (inactive) in assay [15]; 28.2 µM (inactive) in [16]; 44.8 µM (inactive) in assay [17]; 65.2 µM (inactive) in [18]. Besides, the GI50 in assay [19] is 26.5 µM (inactive).

Consider `S=C(N/N=C(/c1ccccc1)c1ccccn1)N(Cc1ccccn1)Cc1ccccn1`, for which the GI50 is 0.108 µM (active) in [1]; < 0.01 µM (active) in assay [2]; 1.63 µM (inactive) in [3]; 0.207 µM (active) in assay [4]; 0.367 µM (active) in assay [5]; 0.356 µM (active) in assay [6]. Also, the GI50 in assay [7] was 0.0323 µM (active); in assay [8], 0.708 µM (active); in [9] it was < 0.0177 µM (active); in assay [10], 0.427 µM (active); in assay [11], 0.0608 µM (active); in assay [12], 0.475 µM (active). The GI50 in assay [13] was 0.841 µM (active); in assay [14], < 0.01 µM (active); in [15] it was 1.05 µM (active); in [16], < 0.0277 µM (active); in [17], 0.338 µM (active); in assay [18], 0.521 µM (active). For the same molecule, the GI50 in [19] is < 0.0302 µM (active).

On to `O=C1/C(=C\c2ccccc2)C2/C(=C\c3ccccc3)C(=O)/C(=C\c3ccccc3)C2/C1=C\c1ccccc1` (centres undefined), for which the GI50 in assay [1] is 1.62 µM (inactive); in [3], 1.29 µM (inactive); in assay [5], 2.07 µM (inactive); in assay [6], 1.7 µM (inactive); in assay [7], 1.43 µM (inactive); in [8], 17.3 µM (inactive). Also, the GI50 is 1.41 µM (inactive) in assay [10]; 3.89 µM (inactive) in assay [11]; 1.22 µM (inactive) in [12]; 0.565 µM (active) in [14]; 2.18 µM (inactive) in [15]; 1.55 µM (inactive) in assay [16]. The results for the GI50 in [17], in [19] and in [20] were 1.9 µM (inactive), 0.437 µM (active) and 0.964 µM (active), respectively.

Turning to `CCCCOC1CC2(c3ccc(OC)cc3)C(=O)c3ccccc3N2O1` (centres undefined), the GI50 in [2] is 37.5 µM (inactive); in assay [5] it was 42.1 µM (inactive); in [6], > 10 µM (inactive); in assay [7], 46.1 µM (inactive); in assay [8] it was > 100 µM (inactive); in assay [10] it was > 10 µM (inactive). Moreover, the GI50 is 40.7 µM (inactive) in assay [11]; 88.1 µM (inactive) in assay [12]; 26.5 µM (inactive) in assay [14]; 65 µM (inactive) in assay [16]; > 10 µM (inactive) in assay [17]; > 10 µM (inactive) in assay [18]. The GI50 in assay [19] is 19 µM (inactive); in assay [20] it was > 10 µM (inactive).

`COc1ccc(/C=c2/sc3n(c2=O)NC(c2ccc(Cl)cc2)NN=3)cc1` (centres undefined): the GI50 in [1], in assay [2], in assay [3], in assay [5], in [6] and in assay [7] was > 100 µM (inactive) each time. Also, the GI50 in assay [8] is 23.1 µM (inactive); in assay [10], > 100 µM (inactive); in assay [11], > 100 µM (inactive); in assay [12], > 100 µM (inactive); in [14] it was > 100 µM (inactive); in assay [15] it was > 100 µM (inactive). Besides, the GI50 in assay [16], in [17], in assay [19] and in assay [20] was > 100 µM (inactive) throughout.

For `O=C(O)Cn1c(=O)[nH]c(=O)c2c1ncn2Cc1ccccc1`, the GI50 in [1], in [2], in assay [6], in assay [7], in assay [8] and in assay [10] was > 100 µM (inactive) each time. The GI50 in assay [11], in assay [12], in assay [14], in [15], in assay [16] and in assay [17] was > 100 µM (inactive) throughout. The GI50 in assay [18], in assay [19] and in assay [20] was > 100 µM (inactive) in each case.

Regarding `C=CCN1/C(=C2\SC(=S)N(c3ccc(C)cc3)C2=O)Sc2c1nc[nH]c2=O`, the GI50 in assay [1] is > 100 µM (inactive); in assay [2], > 100 µM (inactive); in assay [5] it was 88.7 µM (inactive); in assay [6], > 100 µM (inactive); in assay [7], > 100 µM (inactive); in assay [10] it was > 100 µM (inactive). The GI50 in assay [11] is > 100 µM (inactive); in [12], > 100 µM (inactive); in assay [14] it was > 100 µM (inactive); in [15] it was > 100 µM (inactive); in [16], 65.3 µM (inactive); in assay [17], > 100 µM (inactive). Besides, the GI50 in assay [18] is > 100 µM (inactive); in assay [19], 58.9 µM (inactive); in [20], > 100 µM (inactive).

`O=C(c1ccccc1)C1OC12C(=O)Nc1ccccc12` (centres undefined): the GI50 is 21.5 µM (inactive) in [1]; 36.2 µM (inactive) in [2]; 27 µM (inactive) in assay [5]; 26.5 µM (inactive) in assay [6]; 21.8 µM (inactive) in assay [7]; 15.2 µM (inactive) in [8]. Besides, the GI50 is > 100 µM (inactive) in assay [10]; 47.6 µM (inactive) in assay [11]; 45.7 µM (inactive) in assay [12]; 4.5 µM (inactive) in assay [14]; 29.6 µM (inactive) in assay [15]; 21.4 µM (inactive) in [16]. Moreover, the GI50 in assay [17] was 40.7 µM (inactive); in assay [18], 73.1 µM (inactive); in assay [19] it was 8.15 µM (inactive); in assay [20], 38 µM (inactive).

On to `CC1(C)OC2C(O1)[C@H]1OC(C(Cl)(Cl)Cl)=N[C@H]1C(I)[C@H]2N1C(=O)c2ccccc2C1=O` (some centres undefined), for which the GI50 in [1] was 58.2 µM (inactive); in [2], 47.1 µM (inactive); in assay [5], 56.4 µM (inactive); in [7] it was 69.3 µM (inactive); in assay [8] it was 56.9 µM (inactive); in assay [10], > 100 µM (inactive). The GI50 in assay [11] was 79.3 µM (inactive); in assay [12], > 100 µM (inactive); in assay [14], 36.7 µM (inactive); in assay [15] it was 92.3 µM (inactive); in assay [16], > 100 µM (inactive); in assay [17], 54.5 µM (inactive). Further, the GI50 is > 100 µM (inactive) in [18], 26.1 µM (inactive) in [19] and 52.1 µM (inactive) in [20].

Take `COC(=O)CC(C(C(C)=O)C(=O)OCc1ccccc1)N1C(=O)OC(c2ccccc2)C1c1ccccc1` (centres undefined): the GI50 in [1] is 46.9 µM (inactive) and 55.3 µM (inactive); in assay [2], 39.3 µM (inactive) and 24.2 µM (inactive); in assay [3] it was > 100 µM (inactive) and 89.3 µM (inactive); in [5] it was 19.5 µM (inactive) and 30.8 µM (inactive); in assay [11] it was 64.4 µM (inactive); in assay [12], > 100 µM (inactive). The GI50 in [14] is 68.5 µM (inactive) and 71.3 µM (inactive); in assay [15], 65.9 µM (inactive) and 97.7 µM (inactive); in [16] it was > 100 µM (inactive); in [17] it was 41.1 µM (inactive) and 45.4 µM (inactive); in [19], 36.4 µM (inactive) and 42.3 µM (inactive); in assay [20], > 100 µM (inactive) and 78.5 µM (inactive).

For the molecule `CCCCCCCCCCOCCOCCOCCOCCCCC(O)CCCCCCCC1=C[C@H](C)OC1=O` (some centres undefined), the GI50 is 0.774 µM (active) in assay [1]; 9.53 µM (inactive) in [2]; 13.2 µM (inactive) in assay [3]; 0.959 µM (active) in assay [4]; 9.89 µM (inactive) in assay [5]; 7.78 µM (inactive) in [6]. Further, the GI50 in [7] was 14.3 µM (inactive); in assay [8], 11.8 µM (inactive); in [9] it was 8.39 µM (inactive); in [10], 15.7 µM (inactive); in [11], 10.7 µM (inactive); in assay [12], 18.6 µM (inactive). Also, the GI50 is 12 µM (inactive) in assay [13]; 4.02 µM (inactive) in [14]; 12.2 µM (inactive) in [15]; 12.1 µM (inactive) in assay [16]; 13.2 µM (inactive) in [17]; 13.6 µM (inactive) in [18]. Moreover, the GI50 in [19] was 2.83 µM (inactive).

The values above are taken from ChEMBL document CHEMBL1201862, “PubChem BioAssay data set” (2004).
